For 22 compounds, JAK2/JAK1 and PI3K inhibition results are on record in patent US11084822B2, “Salts and processes of preparing a PI3K inhibitor” (Incyte Corporation, priority 2015, dated 2021).

The target in one experiment is JAK2 (Homo sapiens (Human), UniProt O60674). The experiment in a line: JAK2 versus JAK1 (Assay A at 1 mM ATP). It counts as biochemical. The note with it: ratio JAK2/JAK1, Assay A at 1 mM ATP.
Sequence of JAK2 (O60674 whole entry, species assumed): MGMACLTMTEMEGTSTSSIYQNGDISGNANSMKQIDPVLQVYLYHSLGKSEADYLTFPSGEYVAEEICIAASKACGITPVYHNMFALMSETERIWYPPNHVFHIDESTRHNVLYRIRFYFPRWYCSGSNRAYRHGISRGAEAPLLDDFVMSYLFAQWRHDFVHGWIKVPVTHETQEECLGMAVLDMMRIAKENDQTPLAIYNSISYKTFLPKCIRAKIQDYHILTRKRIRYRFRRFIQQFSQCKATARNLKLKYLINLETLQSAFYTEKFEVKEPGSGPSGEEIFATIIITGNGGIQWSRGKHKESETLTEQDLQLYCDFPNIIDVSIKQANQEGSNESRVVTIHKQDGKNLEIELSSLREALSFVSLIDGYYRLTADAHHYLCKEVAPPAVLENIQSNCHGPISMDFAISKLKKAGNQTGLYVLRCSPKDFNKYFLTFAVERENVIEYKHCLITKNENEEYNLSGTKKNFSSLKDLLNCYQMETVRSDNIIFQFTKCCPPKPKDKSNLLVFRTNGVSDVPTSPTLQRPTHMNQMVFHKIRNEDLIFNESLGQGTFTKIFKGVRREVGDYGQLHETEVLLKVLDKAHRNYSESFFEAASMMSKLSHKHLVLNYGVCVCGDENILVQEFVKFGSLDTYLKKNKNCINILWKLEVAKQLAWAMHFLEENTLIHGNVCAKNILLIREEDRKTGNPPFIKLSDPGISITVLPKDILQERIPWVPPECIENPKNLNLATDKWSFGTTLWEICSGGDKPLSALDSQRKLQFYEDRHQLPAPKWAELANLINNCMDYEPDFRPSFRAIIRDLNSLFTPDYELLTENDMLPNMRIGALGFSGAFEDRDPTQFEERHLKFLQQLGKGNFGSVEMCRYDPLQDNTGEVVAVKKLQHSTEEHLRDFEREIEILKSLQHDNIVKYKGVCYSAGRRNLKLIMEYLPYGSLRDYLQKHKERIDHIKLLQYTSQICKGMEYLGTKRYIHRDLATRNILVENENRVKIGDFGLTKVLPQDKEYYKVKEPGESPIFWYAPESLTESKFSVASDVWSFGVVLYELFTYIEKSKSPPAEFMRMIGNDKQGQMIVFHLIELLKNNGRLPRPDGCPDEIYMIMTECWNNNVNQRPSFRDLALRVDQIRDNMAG
For the compound `N#CCC(CN1CCN(C(=O)c2ccc(C#N)cc2F)CC1)n1ccc(-c2ncnc3[nH]ccc23)c1` (stereo not shown) [Compound 6, 4-[(4-{3-cyano-2-[3-(7H-pyrrolo[2,3-d]pyrimidin-4-yl)-1H-pyrrol-1-yl]propyl}piperazin-1-yl)carbonyl]-3-fluorobenzonitrile], the JAK2/JAK1 is listed as >10.

As for `N#CCC(CN1CCN(C(=O)c2ccc(C#N)cc2F)CC1)n1cc(-c2ncnc3[nH]ccc23)cn1` (stereo not shown) [Compound 5, 4-[(4-{3-cyano-2-[4-(7H-pyrrolo[2,3-d]pyrimidin-4-yl)-1H-pyrazol-1-yl]propyl}piperazin-1-yl)carbonyl]-3-fluorobenzonitrile], the JAK2/JAK1 was >10.

For `CCNCc1cc(O[C@H]2CC[C@@H](N3CC(CC#N)(n4cc(-c5ncnc6[nH]ccc56)cn4)C3)CC2)nc(C(F)(F)F)c1` [Compound 19, {1-(cis-4-{[4-[(ethylamino)methyl]-6-(trifluoromethyl)pyridin-2-yl]oxy}cyclohexyl)-3-[4-(7H-pyrrolo[2,3-d]pyrimidin-4-yl)-1H-pyrazol-1-yl]azetidin-3-yl}acetonitrile], the JAK2/JAK1 is reported as >10.

Take `N#CCC1(n2cc(-c3ncnc4[nH]ccc34)cn2)CN(C2CCN(C(=O)c3ccnc(C(F)(F)F)n3)CC2)C1` [Compound 9, [3-[4-(7H-pyrrolo[2,3-d]pyrimidin-4-yl)-1H-pyrazol-1-yl]-1-(1-{[2-(trifluoromethyl)pyrimidin-4-yl]carbonyl}piperidin-4-yl)azetidin-3-yl]acetonitrile]: the JAK2/JAK1 was >10.

On to `N#CCC1(n2cc(-c3ncnc4[nH]ccc34)cn2)CN([C@H]2CC[C@@H](Oc3cc(CCO)nc(C(F)(F)F)n3)CC2)C1` [Compound 18, {1-(cis-4-{[6-(2-hydroxyethyl)-2-(trifluoromethyl)pyrimidin-4-yl]oxy}cyclohexyl)-3-[4-(7H-pyrrolo[2,3-d]pyrimidin-4-yl)-1H-pyrazol-1-yl]azetidin-3-yl)acetonitrile], for which the JAK2/JAK1 is >10.

Turning to `N#CC[C@]1(n2cc(-c3ncnc4[nH]ccc34)cn2)C[C@H](N2CCN(C(=O)c3ccnc(C(F)(F)F)n3)CC2)C1` [Compound 10, [trans-1-[4-(7H-pyrrolo[2,3-d]pyrimidin-4-yl)-1H-pyrazol-1-yl]-3-(4-{[2-(trifluoromethyl)pyrimidin-4-yl]carbonyl}piperazin-1-yl)cyclobutyl]acetonitrile], the JAK2/JAK1 is recorded as >10.

Turning to `C[C@@H](CO)NCc1cc(OC2CCN([C@H]3C[C@](CC#N)(n4cc(-c5ncnc6[nH]ccc56)cn4)C3)CC2)nc(C(F)(F)F)c1` [Compound 23, {trans-3-(4-{[4-({[(1S)-2-hydroxy-1-methylethyl]amino}methyl)-6-(trifluoromethyl)pyridin-2-yl]oxy}piperidin-1-yl)-1-[4-(7H-pyrrolo[2,3-d]pyrimidin-4-yl)-1H-pyrazol-1-yl]cyclobutyl}acetonitrile], the JAK2/JAK1 is >10.

On to `N#CCC(C1CCN(c2cccc(Cl)n2)C1)n1cc(-c2ncnc3[nH]ccc23)cn1` (single isomer, unassigned) [Compound 3, 3-[1-(6-chloropyridin-2-yl)pyrrolidin-3-yl]-3-[4-(7H-pyrrolo[2,3-d]pyrimidin-4-yl)-1H-pyrazol-1-yl]propanenitrile], for which the JAK2/JAK1 is given as >10.

Consider `C[C@H](NC(=O)c1cc(F)c(N2CC(CC#N)(n3cc(-c4ncnc5[nH]ccc45)cn3)C2)cc1F)C(F)(F)F` [Compound 16, 4-{3-(cyanomethyl)-3-[4-(7H-pyrrolo[2,3-d]pyrimidin-4-yl)-1H-pyrazol-1-yl]azetidin-1-yl}-2,5-difluoro-N-[(1S)-2,2,2-trifluoro-1-methylethyl]benzamide], for which the JAK2/JAK1 is listed as >10.

`N#CCC1(n2cc(-c3ncnc4[nH]ccc34)cn2)CN([C@H]2CC[C@@H](Oc3cc(CN4CC[C@@H](O)C4)cc(C(F)(F)F)n3)CC2)C1` [Compound 21, {1-(cis-4-{[4-{[(3R)-3-hydroxypyrrolidin-1-yl]methyl}-6-(trifluoromethyl)pyridin-2-yl]oxy}cyclohexyl)-3-[4-(7H-pyrrolo[2,3-d]pyrimidin-4-yl)-1H-pyrazol-1-yl]azetidin-3-yl}acetonitrile]: the JAK2/JAK1 was >10.

Consider `N#CCC1(n2cc(-c3ncnc4[nH]ccc34)cn2)CN(C2CCN(C(=O)Nc3ccc(F)cc3C(F)(F)F)CC2)C1` [Compound 8], for which the JAK2/JAK1 was >10.

For the compound `N#CC[C@]1(n2cc(-c3ncnc4[nH]ccc34)cn2)C[C@H](N2CCC(Oc3cc(CCO)cc(C(F)(F)F)n3)CC2)C1` [Compound 26, {trans-3-(4-{[4-(2-hydroxyethyl)-6-(trifluoromethyl)pyridin-2-yl]oxy}piperidin-1-yl)-1-[4-(7H-pyrrolo[2,3-d]pyrimidin-4-yl)-1H-pyrazol-1-yl]cyclobutyl}acetonitrile], the JAK2/JAK1 is given as >10.

For `CC(C)(O)c1cc(O[C@H]2CC[C@@H](N3CC(CC#N)(n4cc(-c5ncnc6[nH]ccc56)cn4)C3)CC2)nc(C(F)(F)F)c1` [Compound 20, {1-(cis-4-{[4-(1-hydroxy-1-methylethyl)-6-(trifluoromethyl)pyridin-2-yl]oxy}cyclohexyl)-3-[4-(7H-pyrrolo[2,3-d]pyrimidin-4-yl)-1H-pyrazol-1-yl]azetidin-3-yl}acetonitrile], the JAK2/JAK1 is on record as >10.

Consider `N#CCC(C1CCN(c2nc3cccnc3o2)C1)n1cc(-c2ncnc3[nH]ccc23)cn1` (stereo not shown) [Compound 4, 3-(1-[1,3]oxazolo[5,4-b]pyridin-2-ylpyrrolidin-3-yl)-3-[4-(7H-pyrrolo[2,3-d]pyrimidin-4-yl)-1H-pyrazol-1-yl]propanenitrile], for which the JAK2/JAK1 was >10.

Turning to `N#CCC1(n2cc(-c3ncnc4[nH]ccc34)cn2)CN(C2CCN(C(=O)c3ccnc(C(F)(F)F)c3F)CC2)C1` [Compound 7, {1-{1-[3-Fluoro-2-(trifluoromethyl)isonicotinoyl]piperidin-4-yl}-3-[4-(7H-pyrrolo[2,3-d]pyrimidin-4-yl)-1H-pyrazol-1-yl]azetidin-3-yl}acetonitrile], the JAK2/JAK1 is on record as >10.

As to `C[C@@H](O)CNCc1cc(OC2CCN([C@H]3C[C@](CC#N)(n4cc(-c5ncnc6[nH]ccc56)cn4)C3)CC2)nc(C(F)(F)F)c1` [Compound 24, {trans-3-(4-{[4-({[(2R)-2-hydroxypropyl]amino}methyl)-6-(trifluoromethyl)pyridin-2-yl]oxy}piperidin-1-yl)-1-[4-(7H-pyrrolo[2,3-d]pyrimidin-4-yl)-1H-pyrazol-1-yl]cyclobutyl}acetonitrile], the JAK2/JAK1 was >10.

Take `N#CC[C@]1(n2cc(-c3ncnc4[nH]ccc34)cn2)C[C@H](N2CCC(Oc3cc(CN4CCC[C@@H]4CO)cc(C(F)(F)F)n3)CC2)C1` [Compound 13, {trans-3-(4-{[4-{[(2R)-2-(hydroxymethyl)pyrrolidin-1-yl]methyl}-6-(trifluoromethyl)pyridin-2-yl]oxy}piperidin-1-yl)-1-[4-(7H-pyrrolo[2,3-d]pyrimidin-4-yl)-1H-pyrazol-1-yl]cyclobutyl}acetonitrile]: the JAK2/JAK1 is reported as >10.

Turning to `N#CC[C@]1(n2cc(-c3ncnc4[nH]ccc34)cn2)C[C@H](N2CCC(Oc3cc(CN4CC(O)C4)cc(C(F)(F)F)n3)CC2)C1` [Compound 11, {trans-3-(4-{[4-[(3-hydroxyazetidin-1-yl)methyl]-6-(trifluoromethyl)pyridin-2-yl]oxy}piperidin-1-yl)-1-[4-(7H-pyrrolo[2,3-d]pyrimidin-4-yl)-1H-pyrazol-1-yl]cyclobutyl}acetonitrile], the JAK2/JAK1 is reported as >10.

Turning to `C[C@H](O)CNCc1cc(OC2CCN([C@H]3C[C@](CC#N)(n4cc(-c5ncnc6[nH]ccc56)cn4)C3)CC2)nc(C(F)(F)F)c1` [Compound 25, {trans-3-(4-{[4-({[(2S)-2-hydroxypropyl]amino}methyl)-6-(trifluoromethyl)pyridin-2-yl]oxy}piperidin-1-yl)-1-[4-(7H-pyrrolo[2,3-d]pyrimidin-4-yl)-1H-pyrazol-1-yl]cyclobutyl}acetonitrile], the JAK2/JAK1 is >10.

Turning to `N#CCC1(n2cc(-c3ncnc4[nH]ccc34)cn2)CN([C@H]2CC[C@@H](Oc3cc(CN4CC[C@H](O)C4)cc(C(F)(F)F)n3)CC2)C1` [Compound 22, {1-(cis-4-{[4-{[(3S)-3-hydroxypyrrolidin-1-yl]methyl}-6-(trifluoromethyl)pyridin-2-yl]oxy}cyclohexyl)-3-[4-(7H-pyrrolo[2,3-d]pyrimidin-4-yl)-1H-pyrazol-1-yl]azetidin-3-yl}acetonitrile], the JAK2/JAK1 was >10.

Turning to `N#CC[C@]1(n2cc(-c3ncnc4[nH]ccc34)cn2)C[C@H](N2CCC(Oc3cc(CN4CCC[C@H]4CO)cc(C(F)(F)F)n3)CC2)C1` [Compound 12, {trans-3-(4-{[4-{[(2S)-2-(hydroxymethyl)pyrrolidin-1-yl]methyl}-6-(trifluoromethyl)pyridin-2-yl]oxy}piperidin-1-yl)-1-[4-(7H-pyrrolo[2,3-d]pyrimidin-4-yl)-1H-pyrazol-1-yl]cyclobutyl}acetonitrile], the JAK2/JAK1 is given as >10.

The next experiment concerns PI3K. The experiment in a line: PI3K inhibition according to at least one assay described herein. It counts as biochemical.
Settings: not given
Regarding `CCOc1c([C@H](C)n2nc(C)c3c(N)ncnc32)cc(Cl)c(F)c1[C@@H]1CNC(=O)C1` [compound of Formula I, (R)-4-(3-((S)-1-(4-amino-3-methyl-1H-pyrazolo[3,4-d]pyrimidin-1-yl)ethyl)-5-chloro-2-ethoxy-6-fluorophenyl)pyrrolidin-2-one], the PI3K inhibition entry is “found to be PI3K inhibitors”.
